Measurements from paper PMC6009902, “1-(Benzo[d]thiazol-2-yl)-3-phenylureas as dual inhibitors of casein kinase 1 and ABAD enzymes for treatment of neurodegenerative disorders” (Journal of Enzyme Inhibition and Medicinal Chemistry, 2018).
Several values for one entry are separate records, joined by “and”; a condition that tells them apart may be missing. Equal values may be shown once.

Tests used:
CK1δ = test system: CK1δ; design: method as in PMID 20577972; conditions: standards; cited from earlier work
[1] = target: T1, Human recombinant Casein Kinase 1 delta (CK1δ) (Homo sapiens, UniProt P48730); assay: CK-1δ Kinase-Glo assay; type: biochemical; conditions: for IC50: human recombinant enzyme, mean of two independent experiments, read-out: IC50 CK1δ (µM ± SD); for CK1δ inhibition (value in parentheses): screening at fixed concentration of 10 µM
T1 construct: purchased Millipore (Millipore Iberica S.A.U.)
Description: (§1) The Kinase-Glo Kit was purchased from Promega (Promega Biotech Ibérica, SL) and was used to screen compounds for activity against CK-1δ and CK1ε. Human recombinant Casein Kinase 1 delta and epsilon was purchased from Millipore (Millipore Iberica S.A.U.). Casein solution from bovine milk, 5%, was purchased from Sigma-Aldrich (St. Louis, MO, USA). ATP and all other reagents were from Sigma-Aldrich (St. Louis, MO, USA). Kinase-Glo assays were performed in assay buffer using black 96-well plates. In a typical assay, 10 µL of test compound (dissolved in DMSO at 1 mM concentration and diluted in advance in assay buffer to the desired concentration) 10 µL (16 ng) of enzyme were added to each well followed by 20 µL of assay buffer containing 0.1% casein as substrate and 4 µM ATP. […] After 60 min incubation at 30 °C the enzymatic reaction was stopped with 40 µL of Kinase-Glo reagent. Glow-type luminescence was recorded after 10 min using a FLUOstar Optima (BMG Labtechnologies GmbH, Offenburg, Germany) multimode reader. The activity is proportional to the difference of the total and consumed ATP. The inhibitory activities were calculated on the basis of maximal activities measured in the absence of inhibitor. […] Each value is the mean of two independent experiments.
Compounds were screened against human recombinant enzyme CK1δ at a fixed concentration of 10 µM.

[2] = target: T2, Human recombinant Casein Kinase 1 epsilon (CK1ε) (Homo sapiens, UniProt P49674); assay: CK-1ε Kinase-Glo assay; type: biochemical; conditions: for IC50: human recombinant enzyme, mean of two independent experiments, read-out: IC50 CK1ε (µM ± SD)
T2 construct: purchased Millipore (Millipore Iberica S.A.U.)
Description: as §1, with “experiments. […]” for “experiments.”

PAMPA-BBB assay = conditions: for Pe (10^−6 cm s^−1): 2.5 h
Description: Prediction of the BBB penetration was evaluated using a parallel artificial membrane permeability assay (PAMPA) using the setup according to Di et al.[12]. Ten commercial drugs, phosphate buffer saline solution at pH 7.4 (PBS), Ethanol and dodecane were purchased from Sigma, Acros organics, Merck, Aldrich and Fluka. […] Filter PDVF membrane units (diameter 30 mm, pore size 0.45 µm) from Symta were used to filtered the samples. A 96-well plate UV reader (Thermo Scientific, Multiskan spectrum) was used for the UV measurements. […] About 100 µL of this compound stock solution was taken and […] of EtOH and 3500 µL of PBS pH = 7.4 buffer were added to reach 30% of EtOH concentration in the experiment. These solutions were filtered. The acceptor 96-well microplate was filled with 180 µL of PBS/EtOH (70/30). The donor 96-well plate was coated with 4 µL of porcine brain lipid in dodecane (20 mg mL^−1) and after 5 min, 180 µL of each compound solution was added. About 1–2 mg of every compound to be determined their ability to pass the brain barrier were dissolved in 1500 µL of EtOH and 3500 µL of PBS pH = 7.4 buffer, filtered and then added to the donor 96-well plate. Then the donor plate was carefully put on the acceptor plate to form a “sandwich”, which was left undisturbed for 2 h and 30 min at 25 °C. During this time the compounds diffused from the donor plate through the brain lipid membrane into the acceptor plate. After incubation, the donor plate was removed. UV plate reader determined the concentration of compounds and commercial drugs in the acceptor and the donor wells. Every sample was analysed at three to five wavelengths, in three wells and in two independent runs. […] 10 quality control compounds (previously mentioned) of known BBB permeability were included in each experiment to validate the analysis set.
Parallel Artificial Membrane Permeability Assay (PAMPA) is technique developed to predict passive permeability through biological membranes. […] An assay validation was made comparing the reported permeability values of commercial drugs with the experimental data obtained employing this methodology.

[3] = target: amyloid-beta binding alcohol dehydrogenase (ABAD); design: method as in PMID 27287370; conditions: cited from earlier work
CK1ε = test system: CK1ε; design: method as in PMID 20577972; conditions: standards; cited from earlier work

T2 sequence (P49674 whole entry): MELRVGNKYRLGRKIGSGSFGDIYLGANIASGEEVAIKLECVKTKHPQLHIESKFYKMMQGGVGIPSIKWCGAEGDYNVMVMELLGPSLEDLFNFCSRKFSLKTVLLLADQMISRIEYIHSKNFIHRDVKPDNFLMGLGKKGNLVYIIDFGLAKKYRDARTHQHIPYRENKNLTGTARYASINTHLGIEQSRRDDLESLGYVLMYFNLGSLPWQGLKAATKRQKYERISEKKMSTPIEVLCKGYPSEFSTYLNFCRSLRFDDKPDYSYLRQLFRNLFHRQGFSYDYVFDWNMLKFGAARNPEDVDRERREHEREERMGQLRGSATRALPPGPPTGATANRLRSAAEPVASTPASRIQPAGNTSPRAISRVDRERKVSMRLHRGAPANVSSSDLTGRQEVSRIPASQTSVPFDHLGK
T1 sequence (P48730 whole entry): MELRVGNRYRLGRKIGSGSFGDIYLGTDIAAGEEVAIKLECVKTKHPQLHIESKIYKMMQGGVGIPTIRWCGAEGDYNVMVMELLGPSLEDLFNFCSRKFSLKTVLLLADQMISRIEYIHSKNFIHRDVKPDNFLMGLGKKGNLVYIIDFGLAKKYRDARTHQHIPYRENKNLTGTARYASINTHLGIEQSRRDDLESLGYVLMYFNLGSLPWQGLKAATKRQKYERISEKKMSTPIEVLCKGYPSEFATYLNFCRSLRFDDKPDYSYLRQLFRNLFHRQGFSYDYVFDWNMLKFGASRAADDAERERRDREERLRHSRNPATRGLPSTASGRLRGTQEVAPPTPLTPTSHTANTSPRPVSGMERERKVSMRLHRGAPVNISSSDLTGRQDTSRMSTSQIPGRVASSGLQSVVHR

Row | Compound | IC50 [1] | IC50 [2] | SI (Selectivity index = IC50CK1ε/IC50CK1δ) [1] | other results
2 | O=C(Nc1ccc(O)cc1)Nc1nc2ccc(F)cc2s1 [Compound K684] | 1.37 ± 0.23 µM |  |  | 
3 | O=C(Nc1ccc(O)cc1)Nc1nc2ccc(Cl)cc2s1 [Compound K685] | 0.59 ± 0.06 µM | 9.01 ± 0.37 µM | 15.3 | 
4 | O=C(Nc1cccc(O)c1)Nc1nc2ccc(F)cc2s1 [Compound K686] | 0.86 ± 0.1 µM | 4.02 ± 0.16 µM | 4.7 | 
5 | O=C(Nc1ccc(O)c(Cl)c1)Nc1nc2ccc(F)cc2s1 [Compound K690] | 0.84 ± 0.16 µM | 10.1 ± 0.74 µM | 12.0 | ability to cross the BBB (in words) (PAMPA-BBB assay): able to cross the BBB by passive permeation; Pe (10^−6 cm s^−1) (PAMPA-BBB assay; pig, pH 7.4): 13.2 ± 1.4 10^−6 cm s^−1; IC50 [3]: 1.89 µM
6 | O=C(Nc1ccc(O)c(C(=O)O)c1)Nc1nc2ccc(Cl)cc2s1 [Compound K693] | < 0.5 µM and 0.4 µM | ~2 µM and 2.29 µM | 5.7 | 
7 | COc1ccc(NC(=O)Nc2nc3ccc(F)cc3s2)cc1 [Compound K694] | 7.38 ± 0.93 µM |  |  | 
8 | COc1ccc(NC(=O)Nc2nc3ccc(F)cc3s2)cc1OC [Compound K696] | > 10 µM |  |  | CK1δ inhibition (value in parentheses) [1]: 23%
9 | COc1ccc(NC(=O)Nc2nc3ccc(Cl)cc3s2)cc1OC [Compound K697] | 0.69 ± 0.19 µM | > 10 µM | >14.5 | CK1ε inhibition (value in parentheses) ([2]; printed beside IC50 >10 µM): 26%
10 | COc1ccc(NC(=O)Nc2nc3ccc(F)cc3s2)cc1C(=O)O [Compound K698] | 3.37 ± 0.4 µM |  |  | 
11 | COc1ccc(NC(=O)Nc2nc3ccc(Cl)cc3s2)cc1C(=O)O [Compound K699] | < 0.5 µM and 0.46 µM | 3.49 ± 0.09 µM | 7.6 | 
12 | O=C(Nc1ccc(Oc2ccccc2)cc1)Nc1nc2ccc(Cl)cc2s1 [Compound K701] | > 10 µM |  |  | CK1δ inhibition (value in parentheses) [1]: 37%
13 | O=C(Nc1ccc(C(=O)O)cc1)Nc1nc2ccc(Cl)cc2s1 [Compound K703] | < 0.5 µM and 0.3 µM | 3.69 ± 0.41 µM | 12.3 | 
14 | CCOC(=O)c1ccc(NC(=O)Nc2nc3ccc(F)cc3s2)cc1 [Compound K704] | > 10 µM |  |  | CK1δ inhibition (value in parentheses) [1]: 31%
15 | CC(=O)Nc1ccc(NC(=O)Nc2nc3ccc(F)cc3s2)cc1 [Compound K708] | > 10 µM |  |  | CK1δ inhibition (value in parentheses) [1]: 39%
16 | CC(=O)Nc1ccc(NC(=O)Nc2nc3ccc(Cl)cc3s2)cc1 [Compound K709] | 1.32 ± 0.15 µM |  |  | 
17 | COC(=O)c1cc(NC(=O)Nc2nc3ccc(F)cc3s2)ccc1O [Compound K710] | > 10 µM |  |  | CK1δ inhibition (value in parentheses) [1]: 24%
18 | COC(=O)c1cc(NC(=O)Nc2nc3ccc(Cl)cc3s2)ccc1O [Compound K711] | 9.98 ± 0.96 µM |  |  | 
19 | COc1cc(OC)c(C=C2C(O)=Nc3ccccc32)c(OC)c1 [IC261] |  |  |  | IC50 (CK1ε): 1 µM; IC50 (CK1δ): 1 µM
20 | CN(C)CCCN1c2ccccc2Sc2ccccc21 [promazine, reference compound] |  |  |  | Papp at 2.5 h (PAMPA-BBB assay; pig, pH 7.4): 8.1 ± 0.1 ×10⁻⁶ cm/s

Second part, led by results:

Row | IC50 [1] | IC50 [2] | SI (Selectivity index = IC50CK1ε/IC50CK1δ) [1] | Compound | other results
21 |  | ~2 µM and 1.92 µM | 12.0 | O=C(Nc1cccc(O)c1)Nc1nc2ccc(Cl)cc2s1 [Compound K687] | 
22 | 0.9 ± 0.14 µM | 7.33 ± 0.29 µM | 8.1 | O=C(Nc1nc2ccc(F)cc2s1)Nc1ccccc1O [Compound K688] | 
23 | < 0.5 µM and 0.48 µM | 3.91 ± 0.4 µM | 8.1 | O=C(Nc1nc2ccc(Cl)cc2s1)Nc1ccccc1O [Compound K689] | 
24 | 0.73 ± 0.21 µM | 3.01 ± 0.33 µM | 4.1 | O=C(Nc1ccc(O)c(Cl)c1)Nc1nc2ccc(Cl)cc2s1 [Compound K691] | ability to cross the BBB (in words) (PAMPA-BBB assay): able to cross the BBB by passive permeation; Pe (10^−6 cm s^−1) (PAMPA-BBB assay; pig, pH 7.4): 14 ± 2 10^−6 cm s^−1; IC50 [3]: 1.67 µM
25 | 0.91 ± 0.31 µM | 8.41 ± 0.71 µM | 9.2 | O=C(Nc1ccc(O)c(C(=O)O)c1)Nc1nc2ccc(F)cc2s1 [Compound K692] | 
26 | 8.87 ± 0.73 µM |  |  | COc1ccc(NC(=O)Nc2nc3ccc(Cl)cc3s2)cc1 [Compound K695] | 
27 | > 10 µM |  |  | O=C(Nc1ccc(Oc2ccccc2)cc1)Nc1nc2ccc(F)cc2s1 [Compound K700] | CK1δ inhibition (value in parentheses) [1]: 36%
28 | 2.99 ± 0.36 µM |  |  | O=C(Nc1ccc(C(=O)O)cc1)Nc1nc2ccc(F)cc2s1 [Compound K702] | 
29 | > 10 µM |  |  | CCOC(=O)c1ccc(NC(=O)Nc2nc3ccc(Cl)cc3s2)cc1 [Compound K705] | CK1δ inhibition (value in parentheses) [1]: 45%
30 | > 10 µM |  |  | COC(=O)c1ccc(NC(=O)Nc2nc3ccc(F)cc3s2)cc1 [Compound K706] | CK1δ inhibition (value in parentheses) [1]: 48%
31 | 8.73 ± 0.71 µM |  |  | COC(=O)c1ccc(NC(=O)Nc2nc3ccc(Cl)cc3s2)cc1 [Compound K707] | 
